Data taken from paper PMC10067442, “In vivo quantitative high-throughput screening for drug discovery and comparative toxicology” (Disease Models & Mechanisms, 2023).

Tests used:
C. elegans strain PE254 [1] = experiment: C. elegans LSC qHTS viability assay, Anti-Infectives library primary screen (BG-fed, 384-well); assay type: in vivo, Caenorhabditis elegans
Procedure: Levamisole, ivermectin and albendazole were purchased from Sigma-Aldrich. Stock solutions of all compounds were prepared at 10 mM in DMSO, and ivermectin was diluted to a 10 µM working dilution in DMSO. […] Of these, 284 (38%) are approved for clinical use in the United States, 32 (4%) were previously marketed for use in the United States, and 62 (8%) are used clinically outside of the United States. […] DMSO stock solutions of were arrayed in Echo-qualified 384-well cyclic olefin copolymer plates (Labcyte) in qHTS inter-plate dilution with seven concentrations, 1:5 dilution, resulting in a final concentration range of 2.5–20 mM high concentration titrated to 160 nM to 1.28 µM low concentration ([Yasgar et al., 2008]). ‘Assay-ready’ plates were prepared in 384-well uClear microtiter plates (Greiner BioOne), with compounds acoustically dispensed at 250 nl per well with an Echo 555 in the above inter-plate titration array. Two plates with DMSO added across the compound field at the same volume were prepared as screening controls (‘uniformity plates’). DMSO vehicle control was added to every well of column 1, and levamisole cytotoxicity control was added at a high concentration of 10 mM in wells 1–8 and titrated 1:3, starting at a high concentration of 10 mM to 4.57 µM in wells 9–16 of column 2 of every plate. Additionally, ivermectin, levamisol and albendazole were plated as internal controls on one assay plate in 16-point, 1:2 titration down six replicate columns per compound, starting at a high concentration of 10 µM (ivermectin) or 10 mM (levamisole and albendazole). Assay-ready plates were sealed and frozen at −80°C until use.
C. elegans strain PE254 were collected from 12 NGM plates as above, transferred to 250 ml S medium supplemented with OP50 E. coli pellet collected from 2 l overnight culture, and grown for 5 days at 21°C with vigorous shaking in an Incu-Shaker Mini Shaking Incubator (Benchmark Scientific, Inc.). Eggs were axenized as above and hatched overnight in M9 buffer at 21°C and shaken at 65 rpm. Assay ready plates were thawed and allowed to equilibrate to ambient temperature. BGs in S medium (30 µl/well) at an OD600=0.85 were manually added across plates with a Capp pipette. Synchronized L1 worms from above were collected, diluted and plated at ten worms/30 µl/well with a Capp pipette into assay-ready microtiter plates pre-plated with BGs and compounds (240-fold dilution). […] No ethical approval or guidance is needed for working with nematodes.
Data from the Anti-Infectives screen were normalized by plate to corresponding intra-plate controls as previously described ([Inglese et al., 2006]). Assay statistics were calculated using the same respective controls. Total object ‘GFP’ area (µm^2) and number of worms were normalized to the average signal of DMSO-treated wells as zero percent neutral control, and the average signal of 41.7 µM levamisole-treated wells as −100% activity. In-house software was used to fit the resulting inter-plate titration data to the standard Hill equation, and concentration–response curves were classified by activity as previously described ([Southall et al., 2009]). Curve fits assignments of −1.1, −1.2, −2.1, −2.2 and −3 were considered active and visually confirmed.

C. elegans strain PE254 [2] = experiment: 384-well LSC C. elegans viability assay, life-stage sorted worms on BGs or OP50 live bacteria (assay development); assay type: in vivo, Caenorhabditis elegans
Procedure: Strain PE254 worms were collected from eight NGM plates as above. The mixed population of C. elegans was resuspended in 30 ml 1× S basal buffer and plated at ten GFP worms per well of each life stage into respective wells of 384-well uClear microtiter plates with the COPAS biosorter run with the calibration protocol and settings from above. E. coli BGs diluted to OD600=0.6 or OP50 live bacteria diluted to OD600=0.05, 0.10, 0.15 or 0.2 in S medium were added to respective plates at 30 μl per well manually with a Capp pipette (BioVentures, Inc.). […] Plates were covered with a Breath-Easy seal (Thermo Fisher Scientific) and weighted metal lids with gas exchange pores (Fujifilm Wako Automation Corp.). Worms were grown in the presence of compound or DMSO for 7 days at 21°C and 65 rpm in an Incu-Shaker (Benchmark Scientific). Worms were imaged every 24–72 h on an Acumen eX3 laser scanning cytometer (STP Labtech). Plates were read with default reader settings, with scan 1 488 nm laser, green (FL-2) detection channel, 400 voltage, sensitivity of 2 and triggered in the green PMT. Green objects detected by the reader were identified as worms based on the filtered FL-2 object parameters perimeter (100-2200), area (1000-180,000), and peak intensity (150-1500). Viability was monitored as an increase in GFP fluorescence quantified as total number and total object area (µm^2) of FL-2 filtered objects per well. LSC data were collected using cellista 4 (version 4.3.4.0, STP Labtech).
Concentration–response curves for average total filtered FL-2 object area (‘GFP area’) and total filtered FL-2 number of objects (‘number of worms’) for each respective compound were fit with the nonlinear regression log (agonist) versus response–variable slope (four parameters) algorithm in Prism (GraphPad Software). Hillslope and/or EC50 constraints were applied as needed to all life stages per compound across the 7-day time course, and EC50 values were calculated. […] (3) [drawing 3] where σ is the mean signal and µ is the standard deviation for the treated (p) or neutral (n) controls.

C. elegans [3] = system: C. elegans; set-up: method as in Sant'anna et al., 2013; details: all life stages, post 7-day treatment; ref Sant'anna et al., 2013; read-out: EC50 (toxic); cited from earlier work
C. elegans [4] = details: total GFP area, days 3 and 7 post chemical exposure
HEK293 cells = experiment: HEK293 cell viability (CellTiter-Glo, ATP levels); assay type: cell-based; details: Homo sapiens, 24 h post-treatment, screening control, 14 replicate wells
Procedure: Mammalian cell toxicity was evaluated in HEK293 cells (ATCC) using ATP levels as an indicator of metabolically active cells. Assays were performed in 1536-well plates (Greiner white/solid bottom, high base), and luminescence measurements were made on a ViewLux (Perkin Elmer) ([Martinez et al., 2021]; [Solinski et al., 2019]). Assay-ready plates in 1536-well format were prepared as above using the 384-well Echo-compatible source plates; 25 nl of a seven-point titration with 1:5 dilution starting at a high concentration of 2.5–20 mM of compound was added to respective wells with an Echo 555 acoustic dispenser. A titration of digitonin, 20 mM to 610 nM in DMSO (83.3 µM to 2.5 nM final assay concentration), was used as an intraplate cell toxicity control titration. DMSO vehicle and 83.3 μM digitonin final concentration (64 or 32 replicate wells per assay plate, respectively) were used to establish the assay signal window. Plates were stored at −80°C until use and equilibrated to ambient temperature prior to cell dispense. Then, 1500 cells were added at 6 μl assay volume/well (240-fold dilution) across plates with a Multidrop Combi dispenser (Thermo Fisher Scientific) in standard Dulbecco's modified Eagle medium. Cell viability-dependent luminescence levels were read following the addition of 4 μl CellTiter-Glo (Promega) after 24 h incubation with the test compound.

C. elegans strain PE254 [5] = experiment: Follow-up 11-point re-test, C. elegans LSC viability; assay type: in vivo, Caenorhabditis elegans; details: day 7, screening control in re-test, 4 replicate wells
Procedure: C. elegans strain PE254 were collected from six NGM plates and washed. […] Assay-ready plates were prepared as above with an 11-point, 1:3 titration of 96 compounds identified as active from the qHTS screen based on curve classification and maximum response. […] Data were normalized as above, and concentration–response curves were fit in Prism with nonlinear regression log(agonist) versus response–variable slope (four parameters) fit.

SMILES: CCCSc1ccc2nc(NC(=O)OC)[nH]c2c1 [Albendazole]
- EC50 (C. elegans strain PE254 [1]; Caenorhabditis elegans, 72 h, read-out: Treatment day, EC50 (GFP area)): 0.2 ± 0.3 µM
- EC50 (C. elegans strain PE254 [1]; Caenorhabditis elegans, 96 h, read-out: Treatment day, EC50 (GFP area)): 0.8 ± 0.7 µM
- EC50 (C. elegans strain PE254 [1]; Caenorhabditis elegans, 120 h, read-out: Treatment day, EC50 (GFP area)): 0.9 ± 0.4 µM
- EC50 (C. elegans strain PE254 [1]; Caenorhabditis elegans, 144 h, read-out: Treatment day, EC50 (GFP area)): 0.8 ± 0.4 µM
- EC50 (C. elegans strain PE254 [1]; Caenorhabditis elegans, 168 h, read-out: Treatment day, EC50 (GFP area)): 1.1 ± 0.6 µM
- toxicity (in words) (C. elegans strain PE254 [2]; worms grown on BGs, as early as day 1 for L4 and adult worms, by day 2 for most life stages): significant toxicity
- EC50 (C. elegans [3]): > 10 µM

SMILES: CCOCn1c(-c2ccc(Cl)cc2)c(C#N)c(Br)c1C(F)(F)F [Chlorfenapyr, chlorfenapyr]
- activity in Tox21 sub-library C. elegans qHTS (in words) (C. elegans [4]): identified

SMILES: Clc1ccc(C(c2ccc(Cl)cc2)C(Cl)(Cl)Cl)cc1 [DDT, dichlorodiphenyltrichloroethane]
- activity in Tox21 sub-library C. elegans qHTS (in words) (C. elegans [4]): potent activity

SMILES: C[C@@H]1CC[C@@]2(OC1)O[C@H]1[C@@H](O)[C@H]3[C@@H]4CC[C@H]5C[C@@H](O[C@@H]6O[C@H](CO)[C@H](O[C@@H]7O[C@H](CO)[C@@H](O)[C@H](O[C@@H]8OC[C@@H](O)[C@H](O)[C@H]8O)[C@H]7O[C@@H]7O[C@H](CO)[C@H](O)[C@H](O[C@@H]8O[C@H](CO)[C@@H](O)[C@H](O)[C@H]8O)[C@H]7O)[C@H](O)[C@H]6O)[C@H](O)C[C@]5(C)[C@H]4CC[C@]3(C)[C@H]1[C@@H]2C [Digitonin, digitonin]
- EC50 (HEK293 cells): 31.3 µM

SMILES: c1ccc([C@H]2CN3CCSC3=N2)cc1 [Levamisole]
- EC50 (C. elegans strain PE254 [1]; day 3, intra-plate screening control, averaged from 21 replicates, normalized to 41.7 μM levamisole, read-out: EC50 (GFP area)): 9.37 ± 0.93 µM
- EC50 (C. elegans strain PE254 [1]; day 3, intra-plate screening control, averaged from 21 replicates, read-out: EC50 (number of worms)): 5.96 ± 2.4 µM
- EC50 (C. elegans strain PE254 [1]; day 7, intra-plate screening control, averaged from 21 replicates, read-out: EC50 (GFP area)): 7.99 ± 1.44 µM
- EC50 (C. elegans strain PE254 [1]; day 7, intra-plate screening control, averaged from 21 replicates, read-out: EC50 (number of worms)): 5.74 ± 0.91 µM
- activity on C. elegans viability in primary qHTS (in words) (C. elegans strain PE254 [1]; seven-point titration, GFP area): active
- EC50 (C. elegans strain PE254 [1]; treatment day 2, internal control, 16-point titration, six replicate wells, read-out: Treatment day, EC50 (GFP area)): 12.7 ± 4.7 µM
- EC50 (C. elegans strain PE254 [1]; treatment day 3, internal control, 16-point titration, six replicate wells, read-out: Treatment day, EC50 (GFP area)): 14 ± 5.5 µM
- EC50 (C. elegans strain PE254 [1]; treatment day 4, internal control, 16-point titration, six replicate wells, read-out: Treatment day, EC50 (GFP area)): 5.6 ± 1.5 µM
- EC50 (C. elegans strain PE254 [1]; treatment day 5, internal control, 16-point titration, six replicate wells, read-out: Treatment day, EC50 (GFP area)): 5.3 ± 0.6 µM
- EC50 (C. elegans strain PE254 [1]; treatment day 6, internal control, 16-point titration, six replicate wells, read-out: Treatment day, EC50 (GFP area)): 4.9 ± 0.4 µM
- EC50 (C. elegans strain PE254 [1]; treatment day 7, internal control, 16-point titration, six replicate wells, read-out: Treatment day, EC50 (GFP area)): 5 ± 0.8 µM
- EC50 values (in words) (C. elegans strain PE254 [2]; all life stages, both media (BGs and live bacteria), 7-day time course): low-micromolar range
- EC50 (C. elegans strain PE254 [5]; read-out: EC50 using #worms): 2.45 µM
- EC50 (C. elegans strain PE254 [5]; read-out: EC50 using GFP area): 2.23 µM
